Results on 1 molecule are retold here after patent US12390470B2, “1-methylxanthine-based bioactive composition and method of use thereof” (Ingenious Ingredients, LP, priority 2021, dated 2025).

The subject of data set [1] is gastrocnemius. The data set is described as follows: Gastrocnemius muscle mass after 28 days supplementation. In kind it is in vivo, mice. The protocol: (§1) Twenty-four 8-week-old male Swiss Albino mice were housed in an animal room at a constant temperature (22±3° C.) and humidity (30%-70%) under a 12:12 h light-dark cycle with standard laboratory diet (Purina 5L79, Rat and Mouse 18% protein; PMI Nutrition International, Brentwood, MO, USA). Distilled water was provided ad libitum. All animal experiments were reviewed and approved by the Institutional Animal Ethical Committee (IAEC) of Radiant Research Services Pvt. Ltd (Bangalore, India). All research was conducted in accordance with the guidelines of the committee for the purpose of control and supervision of experiments on animals.
(§2) After one week of acclimation, the animals were randomly divided by body weight into three groups (n=8 per group in each test) for oral treatment once a day, at approximately same time each day (±1 hour), for 28 consecutive days: (1) vehicle control or (2) 1-methylxanthine or (3) 1-methylxanthine plus paraxanthine. The dose administered to the mice was calculated using US Food and Drug Administration for human equivalence doses (HED), assuming a human weight of 60 kg. […] Food intake was monitored daily while water intake was ad libitum. BW was recorded weekly. […]

Data set [2] relates to healthy adult male. As to the kind of experiment: Subject report during work out. In kind it is in vivo, human. The settings on record: 200 mg prior to work out. The protocol: Subject was a healthy adult. Subject was administered 200 mg of 1-methylxanthine prior to work out.
During another trial subject was administered 100 mg of 1-methylxanthine together with 100 mg of paraxanthine, prior to work out.

Data set [3] deals with male Swiss Albino mice. As to the kind of experiment: Passive shock avoidance test, scopolamine-induced amnesia. In kind it is in vivo. The protocol:
Behavioral studies were conducted in mice to examine the learning and memory ability by using Cook's pole and Passive shock avoidance test.
as §1
After one week of acclimation, the animals were randomly divided by body weight into three groups (n=8 per group in each test) for oral treatment once a day, at approximately same time each day (±1 hour), for 7 consecutive days: (1) vehicle control or (2) 1-methylxanthine or (3) 1-methylxanthine plus paraxanthine. The dose administered to the mice was calculated using US Food and Drug Administration for human equivalence doses (HED), assuming a human weight of 60 kg. […] Food intake was monitored daily while water intake was ad libitum. […]

The nature of data set [4]: Organ weight (liver, heart), Example 3. In kind it is in vivo. The conditions noted are these: mice, 28 days. The protocol: as §1
After one week of acclimation, the animals were randomly divided by body weight into three groups (n=8 per group in each test) for oral treatment once a day, at approximately same time each day (±1 hour), for 28 consecutive days: (1) vehicle control or (2) 1-methylxanthine or (3) 1-methylxanthine plus paraxanthine. The dose administered to the mice was calculated using US Food and Drug Administration for human equivalence doses (HED), assuming a human weight of 60 kg. […] Food intake was monitored daily while water intake was ad libitum.

The nature of data set [5]: Organ weight (liver, heart), Example 1. The data set is classed as in vivo. The conditions noted are these: mice, 28 days. The protocol: as §1, §2

With `Cn1c(=O)[nH]c2nc[nH]c2c1=O` [1-methylxanthine, 1-Methyl-3H-purine-2,6-dione], the “gastrocnemius mass greater compared to control” value in data set [1] (28 days) is 1.9%. This molecule returned a gastrocnemius mass in data set [1] (28 days after supplementation) of 161.1 ± 4.3 mg. Also, in data set [2], the “subject-reported effect during work out” value was “increased focus, concentration, mood and performance”. Further, the “Transfer latency, passive shock avoidance test” value in data set [3] (mice, oral 7 days, scopolamine) was 24.25 ± 2.60 s. Besides, in data set [3] (mouse, in vivo), the “Transfer latency faster than control” value was found to be 9.3%. Also, in data set [4], the Heart weight stood at 188.50 ± 3.12 mg and the Liver weight was found to be 1850.88 ± 39.96 mg. In data set [5], the Heart weight was 189.13 ± 0.64 mg and the Liver weight amounted to 1847.25 ± 47.92 mg.
